Patent publication US20220144853A1, “IMIDAZOLINE DERIVATIVES AS CXCR4 MODULATORS” (Université de Paris, priority 2019, published 2022)
Structures can show the parent of a compound that is named as a salt.

Tests used:
[1] = tested on: IFN-γ; experiment: Cytokine production by R848-activated PBMCs, LEGENDplex Human Inflammation panel 1: IFN-γ; assay type: cell-based; conditions: Homo sapiens, PBMC, PBMCs from 2 healthy donors, R848 overnight
Procedure: (§1) 2) The PBMCs used herein were prepared as described in part A “immune cells preparation”, section 2) above. PBMCs were seeded at 4.10^6/mL. […] Cells were then stimulated with the TLR7/8 agonist resiquimod—R848 (Sigma-Aldrich, MO, USA) at 5 μg/mL.
(§2) Cytokine expression levels were assessed using LEGENDplex Human inflammation panel 1 Kit (BioLegend, California, USA), which is a bead-based multiplex assay, using fluorescence-encoded beads. […] First, supernatants of R848-stimulated PBMCs were harvested after 24 h of stimulation and frozen at −20° C. for storage. Supernatants were dispensed into a 96-well V-bottom plate. Protocol pursued as per manufacturer recommendations (Manual for BioLegend LEGENDplex, Multi-Analyte Flow Assay Kit, Human Inflammation Panel 1, version 750000393_R01).

[2] = tested on: IL-12p70; experiment: Cytokine production by R848-activated PBMCs, LEGENDplex Human Inflammation panel 1: IL-12p70; assay type: cell-based; conditions: Homo sapiens, PBMC, PBMCs from 2 healthy donors, R848 overnight
Procedure: as §1, §2

[3] = tested on: IFN production by activated PBMCs; experiment: IFN production by R848-activated PBMCs from healthy donors, twINNE reporter cell line; assay type: cell-based, human; conditions: Homo sapiens, PBMC, means of two results over 2 healthy donors, R848 5 μg/mL, IT1t: mean over all experiments, read-out: IC50 of anti-inflammatory activity (IFN production)
Procedure, shortened: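 Human PBMCs (4.10^6/mL, RPMI/10% FBS, 37° C) stimulated with R848 at 5 μg/mL; supernatants collected after 24 h. Functional IFN measured on twINNE cells (ISRE-driven luciferase reporter) after 24 h culture by bioluminescence; IC50 from variable-slope dose-response fits.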

[4] = tested on: IL-1β; experiment: Cytokine production by R848-activated PBMCs, LEGENDplex Human Inflammation panel 1: IL-1β; assay type: cell-based; conditions: Homo sapiens, PBMC, PBMCs from 2 healthy donors, R848 overnight, read-out: IC50 (μM) 1L-1β
Procedure: as §1, §2

[5] = tested on: IL-23; experiment: Cytokine production by R848-activated PBMCs, LEGENDplex Human Inflammation panel 1: IL-23; assay type: cell-based; conditions: Homo sapiens, PBMC, PBMCs from 2 healthy donors, R848 overnight
Procedure: as §1, §2

[6] = tested on: IL-18; experiment: Cytokine production by R848-activated PBMCs, LEGENDplex Human Inflammation panel 1: IL-18; assay type: cell-based; conditions: Homo sapiens, PBMC, PBMCs from 2 healthy donors, R848 overnight
Procedure: as §1, §2

[7] = tested on: TNF-α; experiment: Cytokine production by R848-activated PBMCs, LEGENDplex Human Inflammation panel 1: TNF-α; assay type: cell-based; conditions: Homo sapiens, PBMC, PBMCs from 2 healthy donors, R848 overnight
Procedure: as §1, §2

[8] = tested on: IL-1β, IFN-γ, TNF-α, IL-10, IL-12p70, IL-18 and IL-23; experiment: Cytokine production by R848-activated PBMCs, LEGENDplex: statements on all inhibited cytokines together; assay type: cell-based; conditions: Homo sapiens, PBMC, PBMCs from two healthy donors, read-out: IC50 on the expression of cytokines, on all such cytokines
Procedure: as §1, §2

[9] = tested on: IL-10; experiment: Cytokine production by R848-activated PBMCs, LEGENDplex Human Inflammation panel 1: IL-10; assay type: cell-based; conditions: Homo sapiens, PBMC, PBMCs from 2 healthy donors, R848 overnight
Procedure: as §1, §2

SMILES	melting point	IC50 [1]	IC50 [2]	IC50 [3]	IC50 [4]	IC50 [5]	IC50 [6]	IC50 [7]	IC50 [8]	IC50 [9]
CN1CCN=C1SCC1=CSC2=NC3CCCCC3N12 (racemic) [Example 63, trans-3-(((1-methyl-4,5-dihydro-1H-imidazol-2-yl)thio)methyl)-4a,5,6,7,8,8a-hexahydrobenzo[4,5]imidazo[2,1-b]thiazole dihydrochloride]		2.7 µM	1.2 µM	≤ 10 µM	2.8 µM	0.69 µM	1.3 µM			
CC1(C)CN=C(SCC2=CSC3=NC(Cc4ccccc4)CN23)N1 (centres unmarked) [Example 18, 6-benzyl-3-(((5,5-dimethyl-4,5-dihydro-1H-imidazol-2-yl)thio)methyl)-5,6-dihydroimidazo[2,1-b]thiazole dihydrochloride]		6.1 µM	3.6 µM	10 to 31 µM	5.6 µM	2.9 µM	0.2 µM	7.9 µM	≤ 20 µM	3.7 µM
CC1(C)CN2C(CSC3=NCC(Cc4ccccc4)N3)=CSC2=N1 (centres unmarked) [Example 17, 3-(((5-benzyl-4,5-dihydro-1H-imidazol-2-yl)thio)methyl)-6,6-dimethyl-5,6-dihydroimidazo[2,1-b]thiazole dihydrochloride]		3.2 µM	0.34 µM	≤ 10 µM	3.6 µM	2.2 µM	0.54 µM	4.6 µM	≤ 20 µM	2.7 µM
CC1(C)CN2C(CSC3=N[C@@H]4CCCC[C@H]4N3)=CSC2=N1 [Example 3, 3-((((3aR,7aR)-3a,4,5,6,7a-hexahydro-1H-benzo[d]imidazol-2-yl)thio)methyl)-6,6-dimethyl-5,6-dihydroimidazo[2,1-b]thiazole dihydrochloride]		7.2 µM	2.6 µM	≤ 10 µM	12 µM	1.7 µM	6.9 µM	11 µM	≤ 20 µM	11 µM
CC1(C)CN=C(SCC2=CSC3=N[C@H]4CCCC[C@@H]4N23)N1 (racemic) [Example 7, trans-3-(((4,4-dimethyl-4,5-dihydro-1H-imidazol-2-yl)thio)methyl)-4a,5,6,7,8,8a-hexahydrobenzo[4,5]imidazo[2,1-b]thiazole dihydrochloride]		9.8 µM	6.7 µM	≤ 10 µM	9.9 µM	2.9 µM	4.2 µM	20 µM	≤ 20 µM	5.6 µM

Second part, led by results:

melting point	SMILES	IC50 [1]	IC50 [2]	IC50 [3]	IC50 [4]	IC50 [5]	IC50 [6]	IC50 [7]	IC50 [8]	IC50 [9]
85 to 95 °C	CC1(C)CN2C(CCCSC3=NCC(C)(C)N3)=CSC2=N1.Cl.Cl [Example 64, 3-(3-((5,5-dimethyl-4,5-dihydro-1H-imidazol-2-yl)thio)propyl)-6,6-dimethyl-5,6-dihydroimidazo[2,1-b]thiazole dihydrochloride]			≥ 31 µM						
226 to 230 °C	CCCCC1CN=C(SCC2=CSC3=N[C@H]4CCCCC4N23)N1 (mixture of isomers) (as salt: hydrochloride) [Example 54, trans-3-(((5-butyl-4,5-dihydro-1H-imidazol-2-yl)thio)methyl)-4a,5,6,7,8,8a-hexahydrobenzo[4,5]imidazo[2,1-b]thiazole dihydrochloride]									
245 to 247 °C	CC1(C)CN=C(SCC2=CSC3=NC(c4ccccc4)CN23)N1 (centres unmarked) (as salt: hydrochloride) [Example 50, 3-(((5,5-dimethyl-4,5-dihydro-1H-imidazol-2-yl)thio)methyl)-6-phenyl-5,6-dihydroimidazo[2,1-b]thiazole dihydrochloride]									
225 to 231 °C	CC1(C)CN2C(CSC3=NCC4(CCCCC4)N3)=CSC2=N1 (as salt: hydrochloride) [Example 39, 3-(((1,3-diazaspiro[4.5]dec-2-en-2-yl)thio)methyl)-6,6-dimethyl-5,6-dihydroimidazo[2,1-b]thiazole dihydrochloride]									
237 to 241 °C	CC(C)[C@@H]1N=C2SC=C(CSC3=NCC(C)(C)N3)N2[C@H]1C(C)C (racemic) (as salt: hydrochloride) [Example 62, trans-3-(((5,5-dimethyl-4,5-dihydro-1H-imidazol-2-yl)thio)methyl)-5,6-diisopropyl-5,6-dihydroimidazo[2,1-b]thiazole dihydrochloride]									
140 to 160 °C	CC1(C)CN=C(SCC2=CSC3=NC(C)(C)C(C)(C)N23)N1 (as salt: hydrochloride) [Example 20, 3-(((5,5-dimethyl-4,5-dihydro-1H-imidazol-2-yl)thio)methyl)-5,5,6,6-tetramethyl-5,6-dihydroimidazo[2,1-b]thiazole dihydrochloride]									
137 to 142 °C	C1=C(CSC2=NCC(Cc3ccccc3)N2)N2C(=N[C@H]3CCCCC32)S1 (mixture of isomers) (as salt: hydrochloride) [Example 55, trans-3-(((5-benzyl-4,5-dihydro-1H-imidazol-2-yl)thio)methyl)-4a,5,6,7,8,8a-hexahydrobenzo[4,5]imidazo[2,1-b]thiazole dihydrochloride]									
